Results: the NIST ThermoML archive (doi:10.1016/j.jct.2015.01.004)
“And” between values parts separate entries of the source, which are not always exact repeats. Identical values can stand only once.

Experiment: molar heat capacity at constant pressure; xn = mol fraction of the nth substance listed
Settings: 100 kPa

[Si] [silicon] + [Li]
Settings	molar heat capacity at constant pressure
453.6 K, Crystal of intercomponent compound 1, Small sample (50 mg) DSC, x2 = 0.81	25.67 J/K/mol
460 K, Crystal of intercomponent compound 1, relaxation calorimetry + DSC, x2 = 0.81	25.6 J/K/mol
460 K, Crystal of intercomponent compound 2, relaxation calorimetry + DSC, x2 = 0.804	26.23 J/K/mol
463.31 K, Crystal of intercomponent compound 2, Small sample (50 mg) DSC, x2 = 0.804	26.1 J/K/mol and 26.34 J/K/mol
463.5 K, Crystal of intercomponent compound 1, Small sample (50 mg) DSC, x2 = 0.81	25.45 J/K/mol
463.51 K, Crystal of intercomponent compound 1, Small sample (50 mg) DSC, x2 = 0.81	25.78 J/K/mol
473.22 K, Crystal of intercomponent compound 2, Small sample (50 mg) DSC, x2 = 0.804	26.29 J/K/mol and 26.62 J/K/mol
473.42 K, Crystal of intercomponent compound 1, Small sample (50 mg) DSC, x2 = 0.81	25.23 J/K/mol
473.43 K, Crystal of intercomponent compound 1, Small sample (50 mg) DSC, x2 = 0.81	26 J/K/mol
480 K, Crystal of intercomponent compound 1, relaxation calorimetry + DSC, x2 = 0.81	25.91 J/K/mol
480 K, Crystal of intercomponent compound 2, relaxation calorimetry + DSC, x2 = 0.804	26.66 J/K/mol
483.13 K, Crystal of intercomponent compound 2, Small sample (50 mg) DSC, x2 = 0.804	26.48 J/K/mol and 26.77 J/K/mol
483.33 K, Crystal of intercomponent compound 1, Small sample (50 mg) DSC, x2 = 0.81	25.45 J/K/mol
483.34 K, Crystal of intercomponent compound 1, Small sample (50 mg) DSC, x2 = 0.81	26.11 J/K/mol
493.04 K, Crystal of intercomponent compound 2, Small sample (50 mg) DSC, x2 = 0.804	26.73 J/K/mol and 26.89 J/K/mol
493.24 K, Crystal of intercomponent compound 1, Small sample (50 mg) DSC, x2 = 0.81	25.56 J/K/mol
493.26 K, Crystal of intercomponent compound 1, Small sample (50 mg) DSC, x2 = 0.81	26.32 J/K/mol
500 K, Crystal of intercomponent compound 1, relaxation calorimetry + DSC, x2 = 0.81	26.22 J/K/mol
500 K, Crystal of intercomponent compound 2, relaxation calorimetry + DSC, x2 = 0.804	27.09 J/K/mol
502.95 K, Crystal of intercomponent compound 2, Small sample (50 mg) DSC, x2 = 0.804	26.84 J/K/mol and 27.04 J/K/mol
503.15 K, Crystal of intercomponent compound 1, Small sample (50 mg) DSC, x2 = 0.81	25.78 J/K/mol
503.17 K, Crystal of intercomponent compound 1, Small sample (50 mg) DSC, x2 = 0.81	26.43 J/K/mol
512.86 K, Crystal of intercomponent compound 2, Small sample (50 mg) DSC, x2 = 0.804	27 J/K/mol and 27.24 J/K/mol
513.06 K, Crystal of intercomponent compound 1, Small sample (50 mg) DSC, x2 = 0.81	25.89 J/K/mol
513.08 K, Crystal of intercomponent compound 1, Small sample (50 mg) DSC, x2 = 0.81	26.54 J/K/mol
520 K, Crystal of intercomponent compound 1, relaxation calorimetry + DSC, x2 = 0.81	26.54 J/K/mol
520 K, Crystal of intercomponent compound 2, relaxation calorimetry + DSC, x2 = 0.804	27.52 J/K/mol
522.77 K, Crystal of intercomponent compound 2, Small sample (50 mg) DSC, x2 = 0.804	27.23 J/K/mol and 27.49 J/K/mol
522.97 K, Crystal of intercomponent compound 1, Small sample (50 mg) DSC, x2 = 0.81	26.11 J/K/mol
522.99 K, Crystal of intercomponent compound 1, Small sample (50 mg) DSC, x2 = 0.81	26.76 J/K/mol
532.68 K, Crystal of intercomponent compound 2, Small sample (50 mg) DSC, x2 = 0.804	27.46 J/K/mol and 27.67 J/K/mol
532.88 K, Crystal of intercomponent compound 1, Small sample (50 mg) DSC, x2 = 0.81	26.21 J/K/mol
532.9 K, Crystal of intercomponent compound 1, Small sample (50 mg) DSC, x2 = 0.81	26.98 J/K/mol
540 K, Crystal of intercomponent compound 1, relaxation calorimetry + DSC, x2 = 0.81	26.88 J/K/mol
540 K, Crystal of intercomponent compound 2, relaxation calorimetry + DSC, x2 = 0.804	27.95 J/K/mol
542.58 K, Crystal of intercomponent compound 2, Small sample (50 mg) DSC, x2 = 0.804	27.67 J/K/mol and 27.88 J/K/mol
542.79 K, Crystal of intercomponent compound 1, Small sample (50 mg) DSC, x2 = 0.81	26.54 J/K/mol
542.81 K, Crystal of intercomponent compound 1, Small sample (50 mg) DSC, x2 = 0.81	27.31 J/K/mol
552.5 K, Crystal of intercomponent compound 2, Small sample (50 mg) DSC, x2 = 0.804	27.8 J/K/mol and 28 J/K/mol
552.7 K, Crystal of intercomponent compound 1, Small sample (50 mg) DSC, x2 = 0.81	26.76 J/K/mol
552.72 K, Crystal of intercomponent compound 1, Small sample (50 mg) DSC, x2 = 0.81	27.53 J/K/mol
560 K, Crystal of intercomponent compound 1, relaxation calorimetry + DSC, x2 = 0.81	27.23 J/K/mol
560 K, Crystal of intercomponent compound 2, relaxation calorimetry + DSC, x2 = 0.804	28.38 J/K/mol
562.41 K, Crystal of intercomponent compound 2, Small sample (50 mg) DSC, x2 = 0.804	27.97 J/K/mol and 28.24 J/K/mol
562.61 K, Crystal of intercomponent compound 1, Small sample (50 mg) DSC, x2 = 0.81	27.09 J/K/mol
562.63 K, Crystal of intercomponent compound 1, Small sample (50 mg) DSC, x2 = 0.81	27.75 J/K/mol
572.33 K, Crystal of intercomponent compound 2, Small sample (50 mg) DSC, x2 = 0.804	28.21 J/K/mol and 28.37 J/K/mol
572.52 K, Crystal of intercomponent compound 1, Small sample (50 mg) DSC, x2 = 0.81	27.31 J/K/mol
572.54 K, Crystal of intercomponent compound 1, Small sample (50 mg) DSC, x2 = 0.81	27.97 J/K/mol
580 K, Crystal of intercomponent compound 1, relaxation calorimetry + DSC, x2 = 0.81	27.6 J/K/mol
580 K, Crystal of intercomponent compound 2, relaxation calorimetry + DSC, x2 = 0.804	28.81 J/K/mol
582.24 K, Crystal of intercomponent compound 2, Small sample (50 mg) DSC, x2 = 0.804	28.41 J/K/mol and 28.65 J/K/mol
582.43 K, Crystal of intercomponent compound 1, Small sample (50 mg) DSC, x2 = 0.81	27.53 J/K/mol
582.45 K, Crystal of intercomponent compound 1, Small sample (50 mg) DSC, x2 = 0.81	28.19 J/K/mol
592.15 K, Crystal of intercomponent compound 2, Small sample (50 mg) DSC, x2 = 0.804	28.65 J/K/mol and 28.85 J/K/mol
592.34 K, Crystal of intercomponent compound 1, Small sample (50 mg) DSC, x2 = 0.81	27.86 J/K/mol
592.36 K, Crystal of intercomponent compound 1, Small sample (50 mg) DSC, x2 = 0.81	28.41 J/K/mol
600 K, Crystal of intercomponent compound 1, relaxation calorimetry + DSC, x2 = 0.81	28 J/K/mol
600 K, Crystal of intercomponent compound 2, relaxation calorimetry + DSC, x2 = 0.804	29.25 J/K/mol
602.06 K, Crystal of intercomponent compound 2, Small sample (50 mg) DSC, x2 = 0.804	28.86 J/K/mol and 29.05 J/K/mol
602.26 K, Crystal of intercomponent compound 1, Small sample (50 mg) DSC, x2 = 0.81	28.19 J/K/mol
602.27 K, Crystal of intercomponent compound 1, Small sample (50 mg) DSC, x2 = 0.81	28.63 J/K/mol
611.97 K, Crystal of intercomponent compound 2, Small sample (50 mg) DSC, x2 = 0.804	29.02 J/K/mol and 29.19 J/K/mol
612.17 K, Crystal of intercomponent compound 1, Small sample (50 mg) DSC, x2 = 0.81	28.3 J/K/mol
612.18 K, Crystal of intercomponent compound 1, Small sample (50 mg) DSC, x2 = 0.81	28.74 J/K/mol
620 K, Crystal of intercomponent compound 1, relaxation calorimetry + DSC, x2 = 0.81	28.43 J/K/mol
620 K, Crystal of intercomponent compound 2, relaxation calorimetry + DSC, x2 = 0.804	29.68 J/K/mol
621.88 K, Crystal of intercomponent compound 2, Small sample (50 mg) DSC, x2 = 0.804	29.19 J/K/mol and 29.48 J/K/mol
622.08 K, Crystal of intercomponent compound 1, Small sample (50 mg) DSC, x2 = 0.81	28.41 J/K/mol
622.09 K, Crystal of intercomponent compound 1, Small sample (50 mg) DSC, x2 = 0.81	28.96 J/K/mol
631.8 K, Crystal of intercomponent compound 2, Small sample (50 mg) DSC, x2 = 0.804	29.46 J/K/mol and 29.65 J/K/mol
631.99 K, Crystal of intercomponent compound 1, Small sample (50 mg) DSC, x2 = 0.81	28.74 J/K/mol
632.01 K, Crystal of intercomponent compound 1, Small sample (50 mg) DSC, x2 = 0.81	29.07 J/K/mol
640 K, Crystal of intercomponent compound 1, relaxation calorimetry + DSC, x2 = 0.81	28.9 J/K/mol
640 K, Crystal of intercomponent compound 2, relaxation calorimetry + DSC, x2 = 0.804	30.11 J/K/mol
641.71 K, Crystal of intercomponent compound 2, Small sample (50 mg) DSC, x2 = 0.804	29.67 J/K/mol and 29.92 J/K/mol
641.89 K, Crystal of intercomponent compound 1, Small sample (50 mg) DSC, x2 = 0.81	28.96 J/K/mol
641.92 K, Crystal of intercomponent compound 1, Small sample (50 mg) DSC, x2 = 0.81	29.29 J/K/mol
651.63 K, Crystal of intercomponent compound 2, Small sample (50 mg) DSC, x2 = 0.804	29.86 J/K/mol and 30.21 J/K/mol
651.81 K, Crystal of intercomponent compound 1, Small sample (50 mg) DSC, x2 = 0.81	29.07 J/K/mol
651.84 K, Crystal of intercomponent compound 1, Small sample (50 mg) DSC, x2 = 0.81	29.51 J/K/mol
